The values below come from patent publication US8999956B2, “N-[(het)arylalkyl)] pyrazole(thio)carboxamides and their heterosubstituted analogues” (Bayer Intellectual Property GmbH, priority 2010, dated 2015).

In one data set the test system is Alternaria solani. The data set is described as follows: In vivo preventive test on Alternaria solani (tomato). Conditions: 500 ppm of active ingredient, evaluated 7 days after inoculation. The procedure, abridged:
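Young tomato plants sprayed preventively with compound in DMF/alkylarylpolyglycolether emulsion diluted in water to the stated rate. Inoculation with aqueous Alternaria solani spore suspension one day after treatment.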

In a further data set the test system is Pyrenophora teres. Description: In vivo preventive test on Pyrenophora teres (barley). Conditions: 500 ppm of active ingredient, evaluated 7-9 days after inoculation. The procedure, abridged: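 Compound formulated in N,N-dimethylformamide with alkylaryl polyglycol ether emulsifier and diluted in water, then sprayed on young barley plants at the stated application rate. Plants inoculated one day later with aqueous Pyrenophora teres spore suspension, testing preventive protection.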

For the next data set, the system named is Leptosphaeria nodorum. Description: In vivo preventive test on Leptosphaeria nodorum (wheat). The following applies: 500 ppm of active ingredient, evaluated 7-9 days after inoculation. As for the experimental part: Solvent: 49 parts by weight of N,N-dimethylacetamide Emulsifier: 1 part by weight of alkylaryl polyglycol ether To produce a suitable preparation of active compound, 1 part by weight of active compound is mixed with the stated amounts of solvent and emulsifier, and the concentrate is diluted with water to the desired concentration. To test for preventive activity, young plants are sprayed with a preparation of active compound at the stated rate of application. One day after this treatment, the plants are inoculated with an aqueous spore suspension of Leptosphaeria nodorum.

Data set [1] concerns aflatoxines produced by Aspergillus parasiticus. Description: microbe, parasite or virus in culture. In kind it is cell-based.
Another data set deals with Aspergillus parasiticus. Description: microbe, parasite or virus in culture. In kind it is cell-based.
The nature of data set [2]: log P by HPLC on reversed-phase column (EEC Directive 79/831 Annex V.A8). In kind it is physicochemical. How it is done:
In table 1, the log P values were determined in accordance with EEC Directive 79/831 Annex V.A8 by HPLC (High Performance Liquid Chromatography) on a reversed-phase column (C18), using the method described below: Temperature: 40° C.; […]

Another data set deals with Sphaerotheca fuliginea. The data set is described as follows: In vivo preventive test on Sphaerotheca fuliginea (cucumber). The following applies: 500 ppm of active ingredient, evaluated 7 days after inoculation. How it is done:
Solvent: 49 parts by weight of N,N-dimethylformamide Emulsifier: 1 part by weight of Alkylarylpolyglycolether To produce a suitable preparation of active compound, 1 part by weight of active compound is mixed with the stated amounts of solvent and emulsifier, and the concentrate is diluted with water to the desired concentration. To test for preventive activity, young plants are sprayed with the preparation of active compound at the stated rate of application. One day after this treatment, the plants are inoculated with an aqueous spore suspension of Sphaerotheca fuliginea. Then the plants are placed in a greenhouse at approximately 23° C. and a relative atmospheric humidity of approximately 70%.

The subject of the next data set is Puccinia triticina. Description: In vivo preventive test on Puccinia triticina (wheat). Conditions: Table K, 500 ppm of active ingredient, evaluated 8 days after inoculation.

Molecules are shown by their SMILES.

Usually logP stands for a log measure of how a compound divides between an organic and an aqueous phase. A high value points to higher lipophilicity. With `Cn1nc(C(F)F)c(C(=O)N(C[Si](C)(C)Cc2ccccc2Cl)C2CC2)c1F` [Example 295], the Efficacy in the data set on Alternaria solani, in the data set on Pyrenophora teres and in the data set on Leptosphaeria nodorum was 100% in each case. Moreover, the “% Inhibition of Aflatoxin at 50 μM” value in data set [1] is 100%. For the same molecule, in the data set on Aspergillus parasiticus, the “% Inhibition of fungal growth at 50 μM” value is recorded as 100%. The molecule further returned a log partition coefficient (logP) in data set [2] of 4.41.
Regarding `Cn1nc(C(F)F)c(C(=O)N(C[Si](C)(C)Cc2cc(Cl)cc(Cl)c2)C2CC2)c1F` [Example 293], the Efficacy with Leptosphaeria nodorum is reported as 94%. In addition, in data set [1], the “% Inhibition of Aflatoxin at 50 μM” value is 100%. Further, the “% Inhibition of fungal growth at 50 μM” value in the data set on Aspergillus parasiticus was found to be 100%. Further, the logP in data set [2] was determined as 4.98.
On to `CCC1(CNC(=O)c2c(C(F)F)nn(C)c2Cl)CCCCC1` [Example 365], for which the Efficacy with Leptosphaeria nodorum amounted to 90%. The same molecule registered a logP in data set [2] of 3.78.
For the molecule `Cn1nc(C(F)F)c(C(=O)N(C[Si](C)(C)Cc2ccccc2)C2CC2)c1Cl` [Example 287], the Efficacy in the data set with Alternaria solani was 95%; in the data set with Pyrenophora teres, 100%; in the data set with Leptosphaeria nodorum, 95%. Besides, the logP in data set [2] is 4.20.
With `Cn1nc(C(F)F)c(C(=O)N(C[Si](C)(C)Cc2cccc(Cl)c2)C2CC2)c1Cl` [Example 290], the Efficacy in the data set on Alternaria solani is on record as 95%; in the data set with Pyrenophora teres, 100%; in the data set on Leptosphaeria nodorum it was 80%. In data set [1], the “% Inhibition of Aflatoxin at 50 μM” value was determined as 82%. Further, in the data set on Aspergillus parasiticus, the “% Inhibition of fungal growth at 50 μM” value is 72%. Also, in data set [2], the logP was determined as 4.59.
As to `CC(CNC(=O)c1c(C(F)F)nn(C)c1F)Cc1c(F)cccc1F` (centres unmarked) [Example 157], the Efficacy with Alternaria solani is 80%; in the data set on Pyrenophora teres, 100%; with Leptosphaeria nodorum, 80%. In addition, the log partition coefficient (logP) in data set [2] is reported as 3.02.
`Cc1cccc(C)c1CCC(C)NC(=O)c1c(C(F)F)nn(C)c1F` (centres unmarked) [Example 154]: the Efficacy in the data set with Sphaerotheca fuliginea worked out at 100%; in the data set on Alternaria solani, 100%; with Pyrenophora teres it was 100%; in the data set on Puccinia triticina, 70%. Moreover, the “% Inhibition of Aflatoxin at 50 μM” value in data set [1] stood at 100%. Besides, in the data set on Aspergillus parasiticus, the “% Inhibition of fungal growth at 50 μM” value came to 100%. Moreover, the logP in data set [2] is reported as 3.41.
On to `CC(CCc1ccc(Cl)c(Cl)c1)NC(=O)c1c(C(F)F)nn(C)c1Cl` (racemic) [Example 131], for which the Efficacy worked out at 95% in the data set with Alternaria solani, 100% with Pyrenophora teres and 80% in the data set with Leptosphaeria nodorum. In data set [2], this molecule registered a logP of 3.85.
As to `Cn1nc(C(F)F)c(C(=O)N(CCOc2ccc(-c3ccccc3)cc2)C2CC2)c1F` [Example 29], the Efficacy in the data set with Alternaria solani was 80%; in the data set with Pyrenophora teres, 100%; in the data set on Leptosphaeria nodorum, 80%. Also, the log partition coefficient (logP) in data set [2] was found to be 3.90.
As for `CC(CCc1c(Cl)cccc1Cl)NC(=O)c1c(C(F)F)nn(C)c1F` (centres unmarked) [Example 163], the Efficacy in the data set on Sphaerotheca fuliginea turned out to be 100%; with Alternaria solani it was 100%; in the data set with Pyrenophora teres it was 100%; in the data set with Puccinia triticina it was 80%. In addition, the “% Inhibition of Aflatoxin at 50 μM” value in data set [1] came out at 100%. Moreover, in the data set with Aspergillus parasiticus, the “% Inhibition of fungal growth at 50 μM” value is 100%. In data set [2], this molecule yielded a logP of 3.59.
`Cn1nc(C(F)F)c(C(=O)N(C[Si](C)(C)Cc2ccccc2Cl)C2CC2)c1Cl` [Example 294]: the Efficacy in the data set with Alternaria solani worked out at 95%; in the data set with Pyrenophora teres, 95%; in the data set with Leptosphaeria nodorum it was 70%. Also, the “% Inhibition of Aflatoxin at 50 μM” value in data set [1] stood at 100%. The “% Inhibition of fungal growth at 50 μM” value in the data set on Aspergillus parasiticus is listed as 84%. This molecule also gave a logP in data set [2] of 4.56.
With `Cn1nc(C(F)F)c(C(=S)N(C[Si](C)(C)Cc2ccc(Cl)cc2Cl)C2CC2)c1F` [Example 299], the Efficacy in the data set with Alternaria solani was 95%; in the data set on Pyrenophora teres, 100%; with Leptosphaeria nodorum, 95%. In addition, the log partition coefficient (logP) in data set [2] turned out to be 5.57.
As to `Cc1cccc(C)c1CCC(C)NC(=O)c1c(C(F)F)nn(C)c1Cl` (centres unmarked) [Example 153], the Efficacy with Sphaerotheca fuliginea stood at 100%; in the data set on Pyrenophora teres, 100%; in the data set with Puccinia triticina, 95%. Also, in data set [1], the “% Inhibition of Aflatoxin at 50 μM” value is given as 100%. Moreover, the “% Inhibition of fungal growth at 50 μM” value with Aspergillus parasiticus was 99%. The molecule also displayed a log partition coefficient (logP) in data set [2] of 3.61.
With `Cn1nc(C(F)F)c(C(=O)NC(C)(C)CCc2ccc(Cl)cc2Cl)c1F` [Example 196], the Efficacy in the data set on Sphaerotheca fuliginea worked out at 75%; with Alternaria solani, 95%; in the data set on Pyrenophora teres, 100%. Further, in data set [1], the “% Inhibition of Aflatoxin at 50 μM” value came to 100%. Moreover, the “% Inhibition of fungal growth at 50 μM” value in the data set with Aspergillus parasiticus was determined as 91%. This molecule also yielded a logP in data set [2] of 4.39.
With `Cc1ccnc(OCC(C)NC(=O)c2c(C(F)F)nn(C)c2Cl)c1` (centres unmarked) [Example 37], the results for the Efficacy in the data set on Alternaria solani, with Pyrenophora teres and with Leptosphaeria nodorum were 80%, 100% and 90%, respectively. In data set [2], this molecule registered a logP of 2.13.
For the molecule `Cc1nn(C)c(F)c1C(=O)N(C(C)CCc1ccccc1C(F)(F)F)C1CC1` (centres unmarked) [E-12 from WO-2008/101976, N-cyclopropyl-5-fluoro-1,3-dimethyl-N-{4-[2-(trifluoromethyl)phenyl]butan-2-yl}-1H-pyrazole-4-carboxamide, reference compound], the Efficacy in the data set on Leptosphaeria nodorum is given as 10%; in the data set with Leptosphaeria nodorum (listed as example E-12 disclosed in patent application WO-2008/101976), “less than 10%”.
Take `CC(CCc1ccc(Cl)c(Cl)c1)N(C(=O)c1c(C(F)F)nn(C)c1Cl)C1CC1` (racemic) [Example 130]: the Efficacy in the data set with Alternaria solani turned out to be 95%; with Pyrenophora teres, 95%; with Leptosphaeria nodorum, 90%; in the data set on Puccinia triticina, 70%. In data set [2], the lipophilicity (logP) amounted to 4.62.
Turning to `CCC(CCc1sccc1Br)NC(=O)c1c(C(F)F)nn(C)c1F` (centres unmarked) [Example 89], the Efficacy was found to be 88% with Sphaerotheca fuliginea, 80% in the data set on Alternaria solani and 100% in the data set with Pyrenophora teres. The “% Inhibition of Aflatoxin at 50 μM” value in data set [1] is 100%. Further, the “% Inhibition of fungal growth at 50 μM” value with Aspergillus parasiticus is 89%. The molecule also had a logP in data set [2] of 3.46.
`CC(N(C(=O)c1c(C(F)F)nn(C)c1Cl)C1CC1)C(C)(C)Cc1ccc(Cl)cc1Cl` (centres unmarked) [Example 182]: the Efficacy in the data set on Sphaerotheca fuliginea is 75%; with Alternaria solani, 95%; in the data set on Pyrenophora teres, 100%. In data set [1], the “% Inhibition of Aflatoxin at 50 μM” value is reported as 100%. The “% Inhibition of fungal growth at 50 μM” value with Aspergillus parasiticus was determined as 90%. In addition, in data set [2], the logP is 5.39.
`Cn1nc(C(F)F)c(C(=S)N(C[Si](C)(C)Cc2ccccc2Cl)C2CC2)c1F` [Example 296]: the Efficacy with Sphaerotheca fuliginea is 70%; in the data set on Alternaria solani, 80%; in the data set with Pyrenophora teres, 100%; with Leptosphaeria nodorum it was 95%. For the same molecule, the log partition coefficient (logP) in data set [2] turned out to be 5.00.
Consider `CC(CCc1cc(Cl)ccc1Cl)NC(=O)c1c(C(F)F)nn(C)c1F` (centres unmarked) [Example 172], for which the Efficacy in the data set on Sphaerotheca fuliginea was determined as 93%; with Alternaria solani it was 100%; in the data set on Pyrenophora teres it was 100%. In data set [1], the “% Inhibition of Aflatoxin at 50 μM” value was found to be 100%. The “% Inhibition of fungal growth at 50 μM” value with Aspergillus parasiticus is 100%. Besides, the logP in data set [2] is 3.68.
As to `Cn1nc(C(F)F)c(C(=O)NC2CCCCC2Oc2ccccc2)c1F` (centres unmarked) [Example 245], the Efficacy in the data set on Alternaria solani came out at 90%; in the data set on Pyrenophora teres, 78%; with Leptosphaeria nodorum, 90%; in the data set on Puccinia triticina it was 70%. The molecule further came in with a logP in data set [2] of 3.52.
On to `CN(CCCc1cc(Cl)ccc1Cl)C(=S)c1c(C(F)F)nn(C)c1F` [Example 168], for which the results for the Efficacy with Alternaria solani, with Pyrenophora teres and with Leptosphaeria nodorum were 90%, 100% and 90%, respectively. Moreover, in data set [2], the lipophilicity (logP) is 4.11.
